This note sets out measurements from PubChem BioAssay (NCI).

Some test systems named below: A498 renal; A549 NSCLC; COLO 205 colon; EKVX NSCLC; HCT-116 colon; K-562 leukemia; SF-295 CNS; SN12C renal; CAKI-1 renal; HOP-92 NSCLC.
Holding throughout (test): growth of human tumour cells (NCI), 48 h

The structures appear in SMILES notation.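 Results reflect a 48-hour exposure of cells in 96-well plates to compound at five concentrations. Abbreviation: GI50, concentration required for 50% inhibition of growth. TGI marks complete inhibition of growth.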

Turning to `O=C(N/N=C/C=C/c1ccccc1)[C@H](O)[C@@H](O)C(=O)N/N=C/C=C/c1ccccc1`, the TGI in the assay on A498 renal, in the assay with A549 NSCLC, with COLO 205 colon, with EKVX NSCLC, with HCT-116 colon and with K-562 leukemia was over 100 µM each time. For the same molecule, the TGI in the assay on SF-295 CNS and with SN12C renal was over 100 µM each time.
For `COc1ccc(CC2CCc3nc(N)nc(N)c3C2)cc1OC` (stereo not drawn), the TGI with A498 renal was over 100 µM; in the assay with A549 NSCLC it was over 53.1 µM; in the assay with CAKI-1 renal, over 100 µM; in the assay on COLO 205 colon, 36 µM; in the assay on EKVX NSCLC it was over 91.2 µM; in the assay with HCT-116 colon it was over 100 µM. The TGI is over 100 µM with HOP-92 NSCLC, over 100 µM in the assay with K-562 leukemia, over 41.4 µM in the assay with SF-295 CNS and over 100 µM with SN12C renal.
Consider `CCN(CCO)C(=O)C1(c2ccccc2)CCCCC1`, for which the TGI in the assay with A498 renal, in the assay on A549 NSCLC, in the assay on CAKI-1 renal, in the assay with COLO 205 colon, in the assay on EKVX NSCLC and in the assay on HCT-116 colon was over 10 µM in each case. In addition, the TGI in the assay on K-562 leukemia, in the assay on SF-295 CNS and in the assay on SN12C renal was over 10 µM in each case.
For `C[C@]12CC[C@H](OC(=O)Cc3ccc(N(CCCl)CCCl)cc3)CC1=CC[C@@H]1[C@@H]2CC[C@]2(C)C(=O)CC[C@@H]12`, the TGI in the assay on A498 renal, in the assay with A549 NSCLC, in the assay with CAKI-1 renal, with COLO 205 colon, in the assay on EKVX NSCLC and with HOP-92 NSCLC was over 100 µM throughout. Further, the TGI in the assay on K-562 leukemia and in the assay on SN12C renal was over 100 µM each time.
For `OCCCNc1nc(=S)[nH]c2[nH]ncc12`, the GI50 in the assay on A498 renal was 13.3 µM; in the assay with A549 NSCLC it was 44.7 µM; in the assay with CAKI-1 renal it was 43.3 µM; with COLO 205 colon it was 29.3 µM; in the assay on EKVX NSCLC, 50.7 µM; in the assay on HOP-92 NSCLC, 65.6 µM. Further, the GI50 with K-562 leukemia was 44.5 µM; in the assay on SF-295 CNS, 49 µM; in the assay on SN12C renal it was 41 µM. Also, the TGI in the assay on A498 renal is 48.2 µM; with A549 NSCLC, over 100 µM; in the assay with CAKI-1 renal, over 100 µM; with COLO 205 colon, over 100 µM; with EKVX NSCLC, over 100 µM; with HOP-92 NSCLC, over 100 µM. Besides, the TGI in the assay on K-562 leukemia, in the assay on SF-295 CNS and with SN12C renal was over 100 µM each time.
